{"source": "patent US20240208950A1", "about": "“COMPOSITIONS AND METHODS FOR TREATMENT OF CERVICAL AND OVARIAN CANCER” (SOUTH DAKOTA BOARD OF REGENTS, priority 2021, published 2024)", "key": {"[1]": {"system": "β-catenin in CaSki cells", "experiment": "β-catenin degradation with cyclohexamide (western blot, pulse chase), CaSki", "type": "cell-based, human", "details": "ORM-Br", "procedure": "A western blot analysis was conducted to determine the effect of ORM-Br on β-catenin degradation. […] Protein lysates were prepared and subjected to western blot analysis to ascertain the levels of protein of β-catenin in cyclohexamide-treated cells (FIG. 3A) and in ORM-Br and cyclohexamide-treated cells (FIG. 3B)."}, "[2]": {"system": "β-catenin in SiHa cells", "experiment": "Western blot of β-catenin in nuclear and cytoplasmic extracts, SiHa", "type": "cell-based, human", "details": "15 μM, 24 hours", "procedure": "In the Example shown at FIGS. 9A-9E, cells were subjected to treatment with 15 μM concentration of ORM-Br for 24 hours, nuclear extracts were prepared and western blot analysis were used to detect the protein levels of β-catenin. […] Western blots were reprobed with β-actin and Histone H3 antibodies as an internal control.\nThe nuclear and cytoplasmic lysates were prepared using respective buffers. The cell lysates (40 μg) were subjected to SDS-PAGE and blotted on PVDF membrane. The membranes were further blocked in 5% milk diluted in 1×TBST solution for 1 hour and incubated overnight in primary antibodies. The following day, the membranes were washed and incubated with secondary antibodies for 1 hour, washed again and developed on a UVP system using chemi-luminiscent reagents.\nThe EMT process in a cell is driven by growth factors or other signaling proteins such as Wnt/beta-catenin and extracellular matrix component that may stimulate cellular growth and migration. The effect of Br-ORM on β-catenin signaling was examined.\nFIG. 15. Effect OF Br-ORM on β-catenin signaling and molecular docking of Br-ORM with β-catenin. Effect of Br-ORM on β-catenin distribution in cytoplasm and nucleus of CaSki and SiHa cells. […] Effect of Br-ORM on β-catenin localization in CaSki cells as determined by confocal microscopy (FIG. 15B(i)-(ii)). […]"}, "[3]": {"system": "ovarian cancer cell line A2780", "experiment": "MTT cell viable assay (cytotoxicity and anti-proliferation)", "type": "cell-based", "details": "Homo sapiens", "procedure": "A biological assay was performed to study the potency of ORM-analogs by observing their pharmaceutical effects on living tissue (in vitro) and the effects of these analogs of unknown potency were compared to the effects of the standard (ormeloxifene). An MTT cell viable assay was first conducted to measure the cytotoxicity and anti-proliferation activity of synthesized analogs (Table 2 and FIG. 2)."}, "[4]": {"system": "CaSki cells", "experiment": "Cell migration (agarose bead, scratch wound, Boyden chamber), CaSki", "type": "cell-based, human", "details": "0 and 48 hours", "procedure": "FIGS. 7B and 7D show the effect of ORM-Br on motility potential of CaSki cells (FIG. 7B) and SiHa cells (FIG. 7D) as predicted by agarose bead assay. The images shown in FIGS. 7A-7D represent the migratory cells (MC) in control and ORM-Br treated groups at 0 and 48 hours. In FIGS. 7B and 7D, AB means agarose beads. In FIGS. 7A-7D the images magnification were at 4.\nCell motility was performed by in vitro scratch wound assay. Briefly, cells were seeded in a 12-wells plate and after 80-90% confluency a standardized wound was made using a 200 μL micropipette tip. Cells were then treated with Br-ORM (10 μM) and photographed by phase contrast microscopy. […]\nFIG. 14. […] Effect of Br-ORM on cell migration of cervical cancer cells as determined by agarose bead (FIG. 14A), scratch wound healing (FIG. 14B), and Boyden chamber assay (FIG. 14C). […] Closure of wound was determined and photographed using phase contrast microscopy. […] Bar graph represent the quantification of migrated CaSki cells of control and Br-ORM treated groups (FIG. 14C(ii)). […] Effect of Br-ORM treatment on invasion of CaSki cells as determined by a commercially available kit (BD Biosciences) as described in materials and methods. In brief, 24 hours post-treatment of Br-ORM, invaded cells were fixed, stained and counted. […] Bar graph represent the quantification of invaded CaSki cells of control and Br-ORM treated groups (FIG. 14D(ii)). […]"}}, "data": [{"smiles": "COc1ccc2c(c1)OC(C)(C)C(c1ccc(Br)cc1)C2c1ccc(OCCN2CCCC2)cc1", "note": "(stereo not drawn) [ORM-Br]", "values": [{"measurement": "protein levels of β-catenin relative to cyclohexamide treatment", "setting": "[1]", "result": "significant decrease in protein levels of β-catenin"}, {"measurement": "nuclear β-catenin expression", "setting": "[2]", "result": "decrease in expression of nuclear β-catenin"}, {"measurement": "nuclear β-catenin expression", "setting": "[2]; listed as Br-ORM", "result": "inhibited nuclear β-catenin"}, {"measurement": "IC50", "setting": "[3]", "result": 11.2, "unit": "µM"}, {"measurement": "cell migration / motility", "setting": "[4]", "result": "inhibits the migration"}, {"measurement": "cell migration / motility", "setting": "[4]; listed as Br-ORM", "result": "dose dependent inhibition of migration abilities"}]}]}
